Experimental data from ChEMBL document CHEMBL1201862, “PubChem BioAssay data set” (2004).
The source made the active and inactive calls.

Experiments:
[1] = HEK-293T cell viability reduction – luminescence, B-cell screen hits, cytotoxicity control for BCR NF-kB inhibitor project, dose response (AID 489021); type: functional, cell-based;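 note: HEK-293T cells carrying an NF-kB luciferase reporter; cells exposed to compound for about 14 hours before viability readout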
[2] = Luminescence Cell-Based Dose Confirmation HTS to Identify Activators of 5'UTR Stem-Loop Driven Alpha-Synuclein mRNA Translation in H4 Neuroglioblastoma Cells. [Related pubchem assays: 1829 (Project Summary), 1814 (Primary HTS)]; type: functional
[3] = Luminescence Cell-Based Dose Response HTS to Identify Activators of Luciferase Translation or Activity in H4 […] Cells. [Related pubchem assays: 1829 (Project Summary), 1814 (Primary HTS)]; type: functional
[4] = test system: H4; assay: Luminescence Cell-Based Dose Response HTS to Identify Activators of 5'UTR Stem-Loop Driven Prion Protein mRNA Translation in H4 Neuroglioblastoma Cells. [Related pubchem assays: 1829 (Project Summary), 1814 (Primary HTS)]; type: functional; settings: Homo sapiens
[5] = test system: HeLa; assay: ATP-based viability loss in HeLa cells – cell-based, CellTiter-Glo luminescence, cherry-pick samples, cytotoxicity control for MITF activator project, dose response (AID 540259); type: functional; settings: Homo sapiens
[6] = viability inhibitors of stage V gametocytes – luminescence, dose response (AID 1117278); type: functional, cell-based;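 note: gametocytes exposed to compound for 24 hours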
[7] = viability loss in human Jurkat cells – cell-based, luminescence, cytotoxicity control for P. falciparum gametocyte viability project, dose response (AID 1117277); type: functional;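 note: potency reflects loss of cellular ATP meaning fewer viable cells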
[8] = target: Heat shock protein HSP 90-alpha (Homo sapiens, UniProt P07900); assay: Luminescence-based dose response biochemical high throughput screening assay for inhibitors of the Heat Shock Protein 90 (HSP90). [Related pubchem assays: 1831 (Summary AID.), 1846 (Confirmation screen.), 1789 (Primary screen.)]
[9] = viability of PTEN-deleted HCT116 cells – cell-based, HCT116 PTEN knockout, dose response (AID 1047); type: functional;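 note: HCT116 colon tumor cells with PTEN knocked out; cells exposed to compound for 60 hours before readout; potency for loss of cell viability measured by luminescence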
[10] = viability of HCT116 lacking mutant beta-catenin – cell-based, human colon tumor, dose response (AID 1045); type: functional;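 note: HCT116 colon tumor cells with beta catenin knocked out; cells exposed to compound for 60 hours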
[11] = NIH-3T3 fibroblast cytotoxicity, dose response, cytotoxicity control, cell-based, fluorescence, Alamar Blue, secondary assay (AID 2327); type: functional;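 note: NIH-3T3 mouse fibroblasts cultured with fluconazole at 8 µg/mL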
[12] = fluconazole-exposed Candida albicans growth modulators – fluorescence, retest, confirmation (AID 2467); type: functional, cell-based
[13] = target: T1, Serine/threonine-protein phosphatase (Candida dubliniensis (strain CD36 / CBS 7987 / NCPF 3949 / NRRLY-17841) (Yeast), UniProt B9W6M3); assay: blockers of CaCl2-induced CDRE-lacZ signaling – S. cerevisiae, luminescence, secondary, dose response (AID 2388); type: functional, cell-based;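 note: yeast reporter cells carrying a calcineurin-responsive lacZ construct stimulated with calcium chloride; luminescent beta-galactosidase reporter signal in whole cells rather than isolated phosphatase activity; potency for inhibition where a drop in reporter signal means calcineurin blockade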
T1 sequence (B9W6M3 whole entry): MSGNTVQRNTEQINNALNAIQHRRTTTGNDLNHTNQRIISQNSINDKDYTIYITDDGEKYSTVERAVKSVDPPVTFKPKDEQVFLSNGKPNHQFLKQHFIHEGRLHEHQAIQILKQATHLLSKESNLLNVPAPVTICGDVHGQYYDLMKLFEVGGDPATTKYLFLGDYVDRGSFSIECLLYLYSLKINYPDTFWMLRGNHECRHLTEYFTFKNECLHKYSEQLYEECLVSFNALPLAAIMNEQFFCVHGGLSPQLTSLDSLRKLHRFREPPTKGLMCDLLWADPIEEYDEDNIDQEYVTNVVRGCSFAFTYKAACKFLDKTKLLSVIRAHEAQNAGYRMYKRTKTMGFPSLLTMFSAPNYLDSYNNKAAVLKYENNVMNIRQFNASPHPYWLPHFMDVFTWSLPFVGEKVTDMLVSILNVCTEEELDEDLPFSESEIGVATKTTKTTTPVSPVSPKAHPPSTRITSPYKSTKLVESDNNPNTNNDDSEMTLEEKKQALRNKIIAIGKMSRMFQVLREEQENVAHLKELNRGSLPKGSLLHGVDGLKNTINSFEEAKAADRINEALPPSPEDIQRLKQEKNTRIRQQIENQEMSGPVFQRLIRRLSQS

[14] = target: ATP-dependent molecular chaperone HSP82 (Candida albicans (strain WO-1) (Yeast), UniProt C4YTQ8); assay: steroid-induced GRE reporter decrease in yeast – S. cerevisiae, luminescence, Hsp90 inhibitor project, dose response (AID 2400); type: functional, cell-based;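 note: beta-galactosidase luminescence from glucocorticoid response element reporter as proxy for Hsp90 function; inhibitor potency where signal loss means Hsp90 inhibition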
[15] = luciferase reporter signal suppression in cells – H4 neuroglioma cells, luminescence, dose response (AID 1990); type: functional, cell-based
[16] = Luminescence Cell-Based Dose Response HTS to Identify Inhibitors of 5'UTR Stem-Loop Driven Prion Protein mRNA Translation in H4 Neuroglioblastoma Cells. [Related pubchem assays: 1827 (Project Summary), 1813 (Primary HTS)]; type: functional
[17] = alpha-synuclein stem-loop luciferase translation blockers – H4 neuroglioma cells, luminescence, confirmation (AID 1988); type: functional, cell-based
[18] = target: T2, Corticotropin-releasing factor receptor 2/Corticotropin-releasing factor-binding protein (Homo sapiens, UniProt P24387+Q13324); assay: activators of CRF receptor 2 with binding protein – uHTS hits, confirmation (AID 602473); type: functional; settings: read-out: EC50_Mean
T2 sequence (Q13324 whole entry): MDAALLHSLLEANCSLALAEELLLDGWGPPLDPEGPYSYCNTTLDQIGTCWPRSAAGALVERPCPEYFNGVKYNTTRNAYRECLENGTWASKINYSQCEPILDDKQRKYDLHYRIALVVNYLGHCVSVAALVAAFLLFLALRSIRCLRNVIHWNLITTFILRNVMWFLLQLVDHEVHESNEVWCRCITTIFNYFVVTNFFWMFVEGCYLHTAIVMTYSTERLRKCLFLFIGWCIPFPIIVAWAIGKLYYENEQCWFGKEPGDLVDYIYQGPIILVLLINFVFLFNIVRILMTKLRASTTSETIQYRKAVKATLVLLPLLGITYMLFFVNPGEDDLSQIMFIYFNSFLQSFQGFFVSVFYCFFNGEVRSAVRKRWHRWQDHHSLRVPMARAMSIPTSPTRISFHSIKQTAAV
T2 sequence (P24387 whole entry): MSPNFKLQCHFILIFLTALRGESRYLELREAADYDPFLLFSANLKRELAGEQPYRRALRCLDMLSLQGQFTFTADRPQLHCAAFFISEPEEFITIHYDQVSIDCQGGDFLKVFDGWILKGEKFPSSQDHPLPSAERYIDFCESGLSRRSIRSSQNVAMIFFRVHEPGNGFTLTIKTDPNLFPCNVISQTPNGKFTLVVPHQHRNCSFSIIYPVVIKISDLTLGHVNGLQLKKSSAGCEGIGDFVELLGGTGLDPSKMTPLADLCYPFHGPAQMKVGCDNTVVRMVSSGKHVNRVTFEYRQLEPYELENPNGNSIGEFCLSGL

[19] = viability of uninfected HEp-2 cells – cell-based, HTS, cytotoxicity control for RSV inhibitor project, dose response (AID 2410); type: functional; settings: human respiratory syncytial virus
[20] = test system: INS1; assay: INS-1E survival protection against cytokine death – cell-based, luminescence, retest, dose response (AID 449756); type: functional; settings: Rattus norvegicus;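 note: cell death triggered by IL-1 beta plus TNF-alpha plus IFN-gamma mixture; protective hits raise ATP signal compared with cytokine alone wells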
[21] = target: T3, Caspase-6 (Homo sapiens, UniProt P55212); assay: inhibition of CASP6 peptide cleavage – biochemical, VEID-R110 fluorescence, cherry-pick, dose response (AID 720632)
T3 sequence (P55212 whole entry): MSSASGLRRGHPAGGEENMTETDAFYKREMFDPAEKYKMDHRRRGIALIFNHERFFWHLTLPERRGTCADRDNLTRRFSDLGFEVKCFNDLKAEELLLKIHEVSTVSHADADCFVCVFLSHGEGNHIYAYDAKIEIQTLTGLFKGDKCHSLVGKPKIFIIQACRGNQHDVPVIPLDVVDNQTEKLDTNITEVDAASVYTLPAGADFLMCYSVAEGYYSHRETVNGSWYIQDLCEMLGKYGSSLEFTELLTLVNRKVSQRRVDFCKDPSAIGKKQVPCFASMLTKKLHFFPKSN

ATP-dependent molecular chaperone HSP82, sequence (C4YTQ8 whole entry): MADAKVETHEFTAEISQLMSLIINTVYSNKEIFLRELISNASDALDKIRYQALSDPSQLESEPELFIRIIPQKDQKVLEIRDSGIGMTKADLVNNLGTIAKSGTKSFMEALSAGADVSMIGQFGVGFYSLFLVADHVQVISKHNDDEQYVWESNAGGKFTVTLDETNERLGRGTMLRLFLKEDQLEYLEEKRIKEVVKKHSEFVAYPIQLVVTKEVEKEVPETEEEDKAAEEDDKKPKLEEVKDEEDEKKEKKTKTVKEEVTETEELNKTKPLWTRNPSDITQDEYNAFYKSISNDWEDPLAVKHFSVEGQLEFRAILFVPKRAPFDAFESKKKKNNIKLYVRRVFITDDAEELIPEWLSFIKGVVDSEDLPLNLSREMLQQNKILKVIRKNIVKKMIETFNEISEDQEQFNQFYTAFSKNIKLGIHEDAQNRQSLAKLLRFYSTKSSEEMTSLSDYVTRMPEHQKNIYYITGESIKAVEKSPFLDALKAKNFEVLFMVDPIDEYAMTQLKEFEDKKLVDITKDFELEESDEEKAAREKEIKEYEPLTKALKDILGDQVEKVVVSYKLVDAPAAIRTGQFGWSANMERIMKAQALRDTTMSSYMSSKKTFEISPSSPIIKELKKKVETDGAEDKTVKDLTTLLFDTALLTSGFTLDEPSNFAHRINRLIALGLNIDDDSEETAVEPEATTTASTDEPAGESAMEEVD

## CCCS(=O)(=O)Nc1cccc(-c2ccc3nnc(C)n3n2)c1
[1]
  IC50: > 80 µM (inactive)

## Cc1ccccc1C(=O)O/N=C(\N)Cc1cccs1
[2]
  EC50: > 120 µM (not active)
[3]
  EC50: 67.6 µM (active)
[4]
  EC50: 6.9 µM (active)
[5]
  AC50: 32 µM (active)

## Cc1cc(C)n(-c2ccc(C(=O)NCc3cccs3)cc2)n1
[6]
  IC50: > 109 µM (inactive)
[7]
  IC50: > 83.3 µM (inactive)

## CCC(C)c1ccc(OCc2ccc(C(=O)OC)o2)cc1 (stereo not given)
[8]
  IC50: 2.29 µM (active)

## CCc1ccc(-c2nc(CN3CCC(C(=O)NCCN(CC)c4ccccc4)CC3)c(C)o2)cc1
[9]
  EC50: 7.82 µM (active)
[10]
  EC50: 6.8 µM (active)

## C=CCNC(S)=Nc1sc2c(c1C(=O)OCC)CC(C)(CC)OC2 (stereo not given)
[11]
  EC50: > 150 µM (inconclusive)
[12]
  EC50: 0.889 µM (active)
[13]
  EC50: > 180 µM (inactive)
[14]
  EC50: 19.2 µM (active)

## Cc1ccc(-c2csc3ncn(CC(=O)N4CCOCC4)c(=O)c23)cc1
[6]
  IC50: > 109 µM (inactive)
[7]
  IC50: > 83.3 µM (inactive)

## CC1=NN(c2ccccc2)C(=O)/C1=C\N(O)c1ccccc1
[8]
  IC50: 2.78 µM (active)

## Cc1cccc(C)c1NC1=NC(=S)N(c2ccc(C(=O)O)cc2)C12CCCCC2
[6]
  IC50: > 109 µM (inactive)
[7]
  IC50: > 83.3 µM (inactive)

## C[C@H]1CC[C@@H]2[C@@H](C)[C@H]3[C@H](C[C@H]4[C@@H]5CC=C6C[C@@H](O[C@@H]7O[C@H](CO)[C@H](O)[C@H](O[C@@H]8O[C@H](CO)[C@@H](O)[C@H](O)[C@H]8O)[C@H]7O[C@@H]7O[C@@H](C)[C@H](O)[C@@H](O)[C@H]7O)CC[C@]6(C)[C@H]5CC[C@]34C)N2C1
[15]
  EC50: 13.5 µM (active)
[16]
  EC50: > 120 µM (not active)
[17]
  EC50: > 120 µM (not active)
[9]
  EC50: 25.2 µM (active)
[10]
  EC50: 22.1 µM (active)
[18]
  EC50: 9.48 µM (active)

## Cc1csc(NC(=O)CCc2c(C)nc3cc(-c4ccc(Cl)cc4)nn3c2C)n1
[1]
  IC50: > 80 µM (inactive)

## CCCn1nnc2sc3c(c2c1=O)CCC(C)C3 (stereo not given)
[19]
  CC50: > 50 µM (active)
[2]
  EC50: 41.1 µM (active)
[3]
  EC50: 0.528 µM (active)
[4]
  EC50: 16.2 µM (active)
[5]
  AC50: 55.9 µM (active)

## c1ccc(-c2cnnc(N3CCCCC3)n2)cc1
[5]
  AC50: 191 µM (active)

## CC(=O)CSc1ccc(-c2nc3ccccc3[nH]2)cn1
[8]
  IC50: 8.09 µM (active)
[20]
  AC50: 5.24 µM (active)

## CNS(=O)(=O)c1cccc(C(=O)OCC(=O)N2c3ccccc3NC(=O)C2(C)C)c1
[21]
  AC50: 3 µM (active)
